The record followed here is EP4722213A1, “NITROGEN-CONTAINING FUNCTIONAL GROUP-SUBSTITUTED PYRIDAZINOPYRIDONE DERIVATIVE AND USE THEREOF” (Sichuan Huiyu Pharmaceutical Co., Ltd., priority 2023, dated 2024).

SMILES strings stand for the structures.

For the test, the target named is T1, SOS1 (Homo sapiens, UniProt Q07889).
T1 sequence (Q07889 1-1333): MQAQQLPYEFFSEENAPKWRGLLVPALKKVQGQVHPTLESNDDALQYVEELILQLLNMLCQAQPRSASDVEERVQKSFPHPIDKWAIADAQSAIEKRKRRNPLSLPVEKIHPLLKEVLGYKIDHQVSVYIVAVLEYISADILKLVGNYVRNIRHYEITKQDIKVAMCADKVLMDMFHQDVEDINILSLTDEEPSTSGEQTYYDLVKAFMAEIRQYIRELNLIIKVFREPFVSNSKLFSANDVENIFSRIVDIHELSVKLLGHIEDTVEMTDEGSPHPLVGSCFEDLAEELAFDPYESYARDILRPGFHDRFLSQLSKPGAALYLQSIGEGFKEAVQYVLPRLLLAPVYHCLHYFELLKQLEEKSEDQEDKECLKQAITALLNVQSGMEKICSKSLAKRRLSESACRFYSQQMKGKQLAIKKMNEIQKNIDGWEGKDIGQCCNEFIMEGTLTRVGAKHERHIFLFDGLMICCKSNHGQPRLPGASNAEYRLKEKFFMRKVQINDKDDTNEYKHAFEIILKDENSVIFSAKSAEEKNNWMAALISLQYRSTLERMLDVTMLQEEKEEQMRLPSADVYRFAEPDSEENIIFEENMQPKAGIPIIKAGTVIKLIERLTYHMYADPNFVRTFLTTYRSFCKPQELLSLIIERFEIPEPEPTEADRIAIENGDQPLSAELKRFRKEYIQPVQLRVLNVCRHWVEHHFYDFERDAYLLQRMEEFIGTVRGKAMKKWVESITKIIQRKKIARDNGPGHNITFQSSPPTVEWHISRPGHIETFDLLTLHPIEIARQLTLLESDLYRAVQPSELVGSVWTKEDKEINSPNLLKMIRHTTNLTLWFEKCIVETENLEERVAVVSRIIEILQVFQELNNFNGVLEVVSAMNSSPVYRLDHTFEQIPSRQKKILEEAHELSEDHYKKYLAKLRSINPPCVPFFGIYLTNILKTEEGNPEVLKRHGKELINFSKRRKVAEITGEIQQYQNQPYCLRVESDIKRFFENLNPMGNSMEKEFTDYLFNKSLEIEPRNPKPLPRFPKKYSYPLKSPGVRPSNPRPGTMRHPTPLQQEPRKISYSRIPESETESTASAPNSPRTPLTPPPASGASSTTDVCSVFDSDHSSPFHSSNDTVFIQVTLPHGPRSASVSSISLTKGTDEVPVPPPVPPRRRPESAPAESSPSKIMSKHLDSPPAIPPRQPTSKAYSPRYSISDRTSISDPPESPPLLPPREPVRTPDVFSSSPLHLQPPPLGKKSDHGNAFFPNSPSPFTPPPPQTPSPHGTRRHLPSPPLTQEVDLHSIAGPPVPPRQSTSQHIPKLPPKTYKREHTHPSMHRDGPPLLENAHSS
Put plainly: biochemical.

For the molecule `Cc1c([C@@H](C)Nc2nnc(N3CCC(F)(F)CC3)c3cc(=O)n(C4CC4)cc23)cccc1C(F)(F)F` [Example 58, (R)-6-cyclopropyl-1-(4,4-difluoropiperidin-1-yl)-4-((1-(2-methyl-3-(trifluoromethyl)phenyl)ethyl)amino)pyr ido[3,4-d]pyridazin-7(6H)-one], the IC50 stood at 100 nM.
The result for `Cc1c([C@@H](C)Nc2nnc(N3CCS(=O)(=O)CC3)c3cc(=O)n(C4CC4)cc23)cccc1C(F)(F)F` [Example 59, (R)-6-cyclopropyl-1-(1,1-dioxidothiomorpholino)-4-((1-(2-methyl-3-(trifluoromethyl)phenyl)ethyl)amino)pyr ido[3,4-d]pyridazin-7(6H)-one] reads 27.4 nM.
As for `CCN(CC)c1nnc(N[C@H](C)c2cccc(C(F)(F)F)c2C)c2cn(C3(C)CC3)c(=O)cc12` [Example 60, (R)-1-(diethylamino)-4-((1-(2-methyl-3-(trifluoromethyl)phenyl)ethyl)amino)-6-(1-methylcyclopropyl) pyrido[3,4-d]pyridazin-7(6H)-one], the figure is 20.9 nM.
`Cc1c([C@@H](C)Nc2nnc(N3CC4CC4C3)c3cc(=O)n(C4(C)CC4)cc23)cccc1C(F)(F)F` (stereo partly drawn) [Example 62, 1-(3-azabicyclo[3.1.0]hexan-3-yl)-4-(((R)-1-(2-methyl-3-(trifluoromethyl)phenyl)ethyl)amino)-6-(1-methylcyclopropyl) pyrido[3,4-d]pyridazin-7(6H)-one] had a concentration for half-maximal inhibition (IC50) of 9.4 nM.
The result for `Cc1c([C@@H](C)Nc2nnc(N3CCC[C@H]3C)c3cc(=O)n(C4(C)CC4)cc23)cccc1C(F)(F)F` [Example 63, 4-(((R)-1-(2-methyl-3-(trifluoromethyl)phenyl)ethyl)amino)-6-(1-methylcyclopropyl)-1-((R)-2-methylpyrrolidin-1-yl)pyrido[3,4-d]pyridazin-7(6H)-one] reads 7.8 nM; that for `Cc1c([C@@H](C)Nc2nnc(N(C)C)c3cc(=O)n(C4(C)CC4)cc23)cccc1C(F)(F)F` [Example 64, (R)-1-(dimethylamino)-4-((1-(2-methyl-3-(trifluoromethyl)phenyl)ethyl)amino)-6-(1-methylcyclopropyl) pyrido[3,4-d]pyridazin-7(6H)-one], 10.7 nM.
With `Cc1c([C@@H](C)Nc2nnc(N3CCC(F)(F)CC3)c3cc(=O)n(C4(C)CC4)cc23)cccc1C(F)(F)F` [Example 65, (R)-1-(4,4-difluoropiperidin-1-yl)-4-((1-(2-methyl-3-(trifluoromethyl)phenyl)ethyl)amino)-6-(1-methylcyclopropyl) pyrido[3,4-d]pyridazin-7(6H)-one], the IC50 was determined as 61 nM. This IC50 is about 5.7-fold higher than that of the molecule before.
The result for `Cc1c([C@@H](C)Nc2nnc(N3CC(F)(F)C3)c3cc(=O)n(C4(C)CC4)cc23)cccc1C(F)(F)F` [Example 66, (R)-1-(3,3-difluoroazetidin-1-yl)-4-((1-(2-methyl-3-(trifluoromethyl)phenyl)ethyl)amino)-6-(1-methylcyclopropyl) pyrido[3,4-d]pyridazin-7(6H)-one] reads 30.9 nM; that for `Cc1c([C@@H](C)Nc2nnc(N3CCC(F)(F)C3)c3cc(=O)n(C4(C)CC4)cc23)cccc1C(F)(F)F` [Example 67, (R)-1-(3,3-difluoropyrrolidin-1-yl)-4-((1-(2-methyl-3-(trifluoromethyl)phenyl)ethyl)amino)-6-(1-methylcyclopropyl) pyrido[3,4-d]pyridazin-7(6H)-one], 29 nM; that for `Cc1c([C@@H](C)Nc2nnc(N3CCS(=O)(=O)CC3)c3cc(=O)n(C4(C)CC4)cc23)cccc1C(F)(F)F` [Example 68, (R)-1-(1,1-dioxidothiomorpholino)-4-((1-(2-methyl-3-(trifluoromethyl)phenyl)ethyl)amino)-6-(1-methylcyclopropyl) pyrido[3,4-d]pyridazin-7(6H)-one], 18.9 nM.
